One data set concerns AD38 cells. In words: AD38 viability normalized to DMSO control. To be noted: 10 μM compound, vs DMSO control. The data set is classed as cell-based. As for the experimental part:
(§1) AD38 cells were then re-suspended with 10 mL of treatment medium and counted. Wells of a collagen coated 96-well NUNC microtiter plate were seeded at 50,000/well in 180 μL of treatment medium, and 20 μL of either 10% DMSO (Control) or a 10× solution of test compound in 10% DMSO in treatment media was added for a final compound concentration 1, 3, or 10 μM (1.0% final [DMSO]) and plates were incubated for 6 days at 37° C.

Data set [1] has as its system HBV viral load, AD38 cells. In words: Activity of test compounds on viral production from AD38 cells (viral load by quantitative PCR of the core sequence in supernatant). The data set is classed as cell-based, Hepatitis B virus. The following applies: 10 μM compound, 6 days at 37° C., vs DMSO control wells; for activity at 10 µM: Hepatitis B virus, 144 h, read-out: AD38 Viral Load (CpAM/DMSO %) at 10 μM. As for the experimental part:
as §1
Subsequently viral load production was assayed by quantitative PCR of the core sequence. Briefly, 5 μL of clarified supernatant was added to a PCR reaction mixture that contained forward primers HBV-f 5′-CTGTGCCTTGGGTGGCTTT-3′, Reverse primers HBV-r 5′-[…]-3′ and Fluorescent TaqMan™ Probes HBV-probe 5′-FAM/AGCTCCAAA/ZEN/[…]/3IABkFQ-3′ in Quanta Biosciences PerfeCTa® qPCR Toughmix®, and was subsequently on an Applied Biosystems VIIA7 in a final volume of 20 μL. The PCR mixture was incubated at 45° C. for 5 minutes, then 95° C. for 10 min, followed by 40 cycles of 10 seconds at 95° C. and 20 seconds at 60° C. Viral load was quantitated against known standards by using ViiA™ 7 Software. Viral load in the supernatant from wells with treated cells were compared against viral load in supernatant from DMSO control wells (≥3 per plate).

Structures are written as SMILES. Like-named read-outs stand apart in the source and are kept apart here.

The values below come from US10273228B2, “Hepatitis B viral assembly effectors” (Indiana University Research and Technology Corporation, priority 2015, dated 2019).

For `Cc1ccc(Nc2cc(C)nc(N3CCN(S(=O)(=O)c4cccs4)CC3)n2)cc1` [Compound 1146], the “AD38 Viability Normalized Result (CPAM/DMSO %) at 10 μM” value in the data set on AD38 cells (Table 6) came out at 106%. For the same molecule, the activity at 10 µM in data set [1] (Table 6) is 15%.
As for `Cc1ccc(Nc2cc(C)nc(N3CCN(S(=O)(=O)c4c[nH]cn4)CC3)n2)cc1` [Compound 1134], the “AD38 Viability Normalized Result (CPAM/DMSO %) at 10 μM” value in the data set on AD38 cells (Table 6) came to 123%. Moreover, the activity at 10 µM in data set [1] (Table 6) was 32%.
On to `COc1ccc(S(=O)(=O)N2CCN(c3nc(Nc4ccc(C)cc4)cc(N4CCOCC4)n3)CC2)cc1` [Compound 1179], for which the “AD38 Viability Normalized Result (CPAM/DMSO %) at 10 μM” value in the data set on AD38 cells (Table 6) is on record as 103%. The activity at 10 µM in data set [1] (Table 6) is 45%.
For the molecule `COc1ccc(S(=O)(=O)N2CCN(c3nc(C)cc(Nc4ncc(C)cn4)n3)CC2)cc1` [Compound 1261], in the data set with AD38 cells (Table 6), the “AD38 Viability Normalized Result (CPAM/DMSO %) at 10 μM” value is on record as 98%. In data set [1] (Table 6), the activity at 10 µM is 87%.
For the molecule `CCOc1ccc(S(=O)(=O)N2CCN(c3nc(Nc4ccc(C#N)cc4)cc(C(F)(F)F)n3)CC2)cc1` [Compound 1333], in the data set on AD38 cells (Table 9), the “AD38 Viability Normalized Result (CPAM/DMSO %) at 10 μM” value is given as 85%. Besides, in data set [1] (Table 9), the activity at 10 µM stood at 2%.
For `COc1ccc(S(=O)(=O)N2CCN(c3nc(Nc4ccc(C)cc4)cc(N(C)C(C)C)n3)CC2)cc1` [Compound 1248], in the data set on AD38 cells (Table 6), the “AD38 Viability Normalized Result (CPAM/DMSO %) at 10 μM” value was 33%. Besides, the activity at 10 µM in data set [1] (Table 6) was found to be 8%.
Consider `Cc1ccc(S(=O)(=O)N2CCN(c3nc(Nc4ccc(F)cc4)cc(-c4nccs4)n3)CC2)cc1` [Compound 1361], for which, in the data set on AD38 cells (Table 9), the “AD38 Viability Normalized Result (CPAM/DMSO %) at 10 μM” value is on record as 95%. For the same molecule, the activity at 10 µM in data set [1] (Table 9) amounted to 25%.
In the case of `O=C(O)c1ccc(S(=O)(=O)N2CCN(c3nc(Nc4ccc(F)cc4)cc(C(F)(F)F)n3)CC2)cc1` [Compound 1388, 4-((4-(4-((4-fluorophenyl)amino)-6-(trifluoromethyl)pyrimidin-2-yl)piperazin-1-yl)sulfonyl) benzoic acid], the “AD38 Viability Normalized Result (CPAM/DMSO %) at 10 μM” value with AD38 cells (Table 9) came out at 106%. Also, in data set [1] (Table 9), the activity at 10 µM was 15%.
With `COc1ccc(S(=O)(=O)N2CCN(c3nc(Nc4ccc(C)cc4)cc(-c4ncc[nH]4)n3)CC2)cc1` [Compound 1274, 6-(1H-imidazol-2-yl)-2-(4-((4-methoxyphenyl)sulfonyl)piperazin-1-yl)-N-(p-tolyl) pyrimidin-4-amine], the “AD38 Viability Normalized Result (CPAM/DMSO %) at 10 μM” value with AD38 cells (Table 6) was determined as 92%. For the same molecule, the activity at 10 µM in data set [1] (Table 6) stood at 19%.
With `COC(=O)Cc1cccc(S(=O)(=O)N2CCN(c3nc(C)cc(Nc4ccc(F)cc4)n3)CC2)c1` [Compound 1412, methyl 2-(3-((4-(4-((4-fluorophenyl)amino)-6-methylpyrimidin-2-yl)piperazin-1-yl)sulfonyl)phenyl) acetate], the “AD38 Viability Normalized Result (CPAM/DMSO %) at 10 μM” value in the data set on AD38 cells (Table 9) was determined as 109%. In addition, the activity at 10 µM in data set [1] (Table 9) came out at 61%.
Regarding `COc1ccc(S(=O)(=O)N2CCN(c3nc(Nc4ccc(C)cc4)cc(-n4cncn4)n3)CC2)cc1` [Compound 1230], the “AD38 Viability Normalized Result (CPAM/DMSO %) at 10 μM” value with AD38 cells (Table 6) came to 95%. For the same molecule, the activity at 10 µM in data set [1] (Table 6) was found to be 0%.
The matching figures for `COc1cccc(S(=O)(=O)N2CCN(c3cccc(Nc4ccc(C)cc4)n3)CC2)c1` [Compound 1168]: 100% and 51%.
In the case of `CCOc1ccc(S(=O)(=O)N2CCN(c3nc(Nc4ccc(C#N)cc4)cc(-c4nccs4)n3)CC2)cc1` [Compound 1353], in the data set on AD38 cells (Table 9), the “AD38 Viability Normalized Result (CPAM/DMSO %) at 10 μM” value is 107%. Also, the activity at 10 µM in data set [1] (Table 9) amounted to 7%.
With `COc1ccc(S(=O)(=O)N2CCN(c3nc(C)cc(Nc4ccc(F)cc4)n3)CC2C)cc1` (centres unmarked) [Compound 1348], the “AD38 Viability Normalized Result (CPAM/DMSO %) at 10 μM” value in the data set on AD38 cells (Table 9) amounted to 102%. Besides, the activity at 10 µM in data set [1] (Table 9) turned out to be 5%.
With `Cc1ccc(Nc2cc(C)nc(N3CCN(S(=O)(=O)c4cccc5ccccc45)CC3)n2)cc1` [Compound 1135], in the data set on AD38 cells (Table 6), the “AD38 Viability Normalized Result (CPAM/DMSO %) at 10 μM” value came to 107%. Also, the activity at 10 µM in data set [1] (Table 6) is 16%.
As for `CCCCOc1ccc(S(=O)(=O)N2CCN(c3nc(Nc4ccc(F)cc4)cc(-c4nccs4)n3)CC2)cc1` [Compound 1368], the “AD38 Viability Normalized Result (CPAM/DMSO %) at 10 μM” value in the data set with AD38 cells (Table 9) came to 94%. Moreover, the “AD38 Viral Load (CpAM/DMSO %) at 10 μM” value in data set [1] (Table 9) is 147%.
With `Cc1cc(Nc2ccc(F)cc2)nc(N2CCN(S(=O)(=O)c3ccc(OCC(=O)O)cc3)CC2)n1` [Compound 1384, 2-(4-((4-(4-((4-fluorophenyl)amino)-6-methylpyrimidin-2-yl)piperazin-1-yl)sulfonyl)phenoxy) acetic acid], the “AD38 Viability Normalized Result (CPAM/DMSO %) at 10 μM” value in the data set with AD38 cells (Table 9) was 91%. Besides, the activity at 10 µM in data set [1] (Table 9) stood at 122%.
As for `COc1ccc(S(=O)(=O)N2CCN(c3nc(Nc4ccc(C)cc4)cc(N4CCNCC4)n3)CC2)cc1` [Compound 1202, 2-(4-((4-methoxyphenyl)sulfonyl)piperazin-1-yl)-6-(piperazin-1-yl)-N-(p-tolyl) pyrimidin-4-amine], the “AD38 Viability Normalized Result (CPAM/DMSO %) at 10 μM” value in the data set with AD38 cells (Table 6) came out at 106%. Also, the activity at 10 µM in data set [1] (Table 6) stood at 51%.
As for `CCCCOc1ccc(S(=O)(=O)N2CCN(c3nc(Nc4ccc(F)cc4)cc(-c4nccs4)n3)CC2)cc1` [Compound 1359], in the data set with AD38 cells (Table 9), the “AD38 Viability Normalized Result (CPAM/DMSO %) at 10 μM” value came out at 97%. Also, in data set [1] (Table 9), the “AD38 Viral Load (CpAM/DMSO %) at 10 μM” value is listed as 60%.
Take `Cc1ccc(S(=O)(=O)N2CCN(c3nc(C)cc(Nc4ccc(C#N)cc4)n3)CC2)cc1` [Compound 1321]: in data set [1] (Table 6), the activity at 10 µM amounted to 1%.
For the molecule `CCCCOc1ccc(S(=O)(=O)N2CCN(c3nc(Nc4ccc(F)cc4)cc(C(F)(F)F)n3)CC2)cc1` [Compound 1342], in the data set on AD38 cells (Table 9), the “AD38 Viability Normalized Result (CPAM/DMSO %) at 10 μM” value came to 107%. Further, in data set [1] (Table 9), the activity at 10 µM came to 17%.
For the molecule `N#Cc1ccc(Nc2cc(C(F)(F)F)nc(N3CCN(S(=O)(=O)c4ccc(OC(F)(F)F)cc4)CC3)n2)cc1` [Compound 1332], the “AD38 Viability Normalized Result (CPAM/DMSO %) at 10 μM” value with AD38 cells (Table 9) was determined as 85%. Besides, the activity at 10 µM in data set [1] (Table 9) came to 13%.
With `COc1ccc(S(=O)(=O)N2CCN(c3nc(Nc4ccc(C)cc4)cc(NC(C)C)n3)CC2)cc1` [Compound 1231], in the data set on AD38 cells (Table 6), the “AD38 Viability Normalized Result (CPAM/DMSO %) at 10 μM” value is reported as 94%. For the same molecule, the activity at 10 µM in data set [1] (Table 6) came out at 45%.
For `COc1ccc(S(=O)(=O)N2CCN(c3nc(Nc4ccc(C)cc4)cc(N4CCCCC4=O)n3)CC2)cc1` [Compound 1213], in that order: 94% and 40%.
For the molecule `COc1cccc(S(=O)(=O)N2CCN(c3cc(C)cc(Nc4ccc(C)cc4)n3)CC2)c1` [Compound 1173], the “AD38 Viability Normalized Result (CPAM/DMSO %) at 10 μM” value in the data set on AD38 cells (Table 6) is 105%. Further, in data set [1] (Table 6), the activity at 10 µM came out at 9%.
Consider `O=S(=O)(c1ccc(C(F)(F)F)cc1)N1CCN(c2nc(Nc3ccc(F)cc3)cc(-n3cnnc3)n2)CC1` [Compound 1315], for which the “AD38 Viability Normalized Result (CPAM/DMSO %) at 10 μM” value with AD38 cells (Table 6) worked out at 98%. The activity at 10 µM in data set [1] (Table 6) was 89%.
The matching figures for `COc1ccc(S(=O)(=O)N2CCN(c3nc(C)cc(Nc4ccncc4)n3)CC2)cc1` [Compound 1240]: 102% and 46%.
`COCCOCCOc1ccc(S(=O)(=O)N2CCN(c3nc(Nc4ccc(F)cc4)cc(C(F)(F)F)n3)CC2)cc1` [Compound 1402]: the “AD38 Viability Normalized Result (CPAM/DMSO %) at 10 μM” value in the data set with AD38 cells (Table 9) was determined as 97%. Besides, the activity at 10 µM in data set [1] (Table 9) came out at 12%.
In the case of `Cc1ccc(S(=O)(=O)N2CCN(c3nc(Nc4ccc(C#N)cc4)cc(C(F)(F)F)n3)CC2)cc1` [Compound 1324], in data set [1] (Table 6), the activity at 10 µM was 1%.
In the case of `N#Cc1ccc(Nc2cc(C(F)(F)F)nc(N3CCN(S(=O)(=O)c4ccc(C(F)(F)F)cc4)CC3)n2)cc1` [Compound 1320], the activity at 10 µM in data set [1] (Table 6) was 18%.
In the case of `COc1ccc(S(=O)(=O)N2CCN(c3nc(Nc4ccc(C#N)cc4)cc(C(F)(F)F)n3)CC2)cc1` [Compound 1329], the activity at 10 µM in data set [1] (Table 6) worked out at 1%.
Consider `Cc1cc(Nc2ccc(C#N)cc2)nc(N2CCN(S(=O)(=O)c3ccc(O)cc3)CC2)n1` [Compound 1328], for which, in data set [1] (Table 6), the activity at 10 µM amounted to 9%.
As for `N#Cc1ccc(Nc2cc(C(F)(F)F)nc(N3CCN(S(=O)(=O)c4ccccc4)CC3)n2)cc1` [Compound 1325], the activity at 10 µM in data set [1] (Table 6) amounted to 1%.
`Cc1cc(Nc2ccc(C#N)cc2)nc(N2CCN(S(=O)(=O)c3ccc(C(F)(F)F)cc3)CC2)n1` [Compound 1322]: the activity at 10 µM in data set [1] (Table 6) is 35%.
The same measure, in the same setting: the result for `Cc1cc(Nc2ccc(C#N)cc2)nc(N2CCN(S(=O)(=O)c3ccc(F)cc3)CC2)n1` [Compound 1319] reads 5%; that for `Cc1cc(Nc2ccc(C#N)cc2)nc(N2CCN(S(=O)(=O)c3ccccc3)CC2)n1` [Compound 1327], 1%; that for `N#Cc1ccc(Nc2cc(C(F)(F)F)nc(N3CCN(S(=O)(=O)c4ccc(F)cc4)CC3)n2)cc1` [Compound 1326], 2%.
Turning to `Cc1ccc(S(=O)(=O)N2CCN(c3nc(Nc4ccc(F)cc4)cc(-n4cnnc4)n3)CC2)cc1` [Compound 1316], in data set [1] (Table 6), the activity at 10 µM is 25%.
